This note sets out measurements from patent publication US20230039987A1, “GEL COMPOSITIONS, SYSTEMS, AND METHODS” (Boston Scientific Scimed, Inc., priority 2021, published 2023).

In the data set the test system is NIH 3T3 fibroblasts. As to conditions: read-out: IC50 (cytotoxicity); 24 hours, MTS.

Procedure: In vitro cytotoxicity of the photoinitiator and the gel were tested using NIH 3T3 fibroblasts cultured in Dulbecco's Modified Eagle's Medium (DMEM) containing 10% fetal bovine serum and 1% penicillin-streptomycin. Cells were seeded in either 96 well plates or 12 well plates at a density of 2,500 cells/well or 25,000 cells/well, respectively, and allowed to adhere overnight. Photoinitiator solutions and the gel solution were sterile filtered using a 0.22 um filter prior to testing in vitro. The gel solution was then gelled within the biosafety cabinet using the 150 W halogen lamp and co-cultured with the cells utilizing a 3 μm pore size transwell insert. Cells were incubated with treatments for 24 hours and then viability was measured using an MTS (3-(4,5-dimethyltriazol-2-yl)-5-(3-carboxymethoxyphenyl)-2-(4-sulfophenyl)-2H-tratrazolium, inner salt) assay (CellTiter 96® AQueous One, Promega). Cell viabilities were normalized to control untreated cells.

Broadly, the IC50 is the concentration needed to halve the response being measured. For the compound `O=C(O)c1ccccc1-c1c2cc(Br)c(=O)c(Br)c-2oc2c(Br)c(O)c(Br)cc12` [photoinitiator, Eosin Y], the half-maximal inhibitory concentration (IC50) was around 223 µM.
